Measurements published in patent US4902685A, “2-amino-3-cyano-bicyclic pyridines/pyrazines as inhibitors of interleukin 1” (American Home Products Corporation, priority 1988, dated 1990).

system: IL 1-induced release of neutral protease from rabbit articular chondrocytes; assay: inhibition of IL 1-induced release of neutral protease from rabbit articular chondrocytes (azocoll assay); type: cell-based; settings: Oryctolagus cuniculus, Chondrocyte; dose 1 μM; human IL 1; 24 h; relative to vehicle-treated chondrocytes; read-out: % Inhibition (I.S.D.)
Experimental: The ability of the compounds of the inventions to inhibit interleukin 1 is measured by the ability of the test compounds to inhibit the IL 1-induced release of neutral protease from rabbit articular chondrocytes.
This assay is carried out as follows:
Isolation of rabbit chondrocytes:
Male New Zealand White rabbits are anesthetized with 50 mg/kg of ketamine (i.m.) and killed by an intracardiac injection of 3 mls. of Nembutal. The knee joints of both legs are resected and the articular surfaces are exposed. Cartilate slices are obtained using a scalpel and are placed in a tissue culture dish (100 mm diameter) containing 10 mls of Hank's balanced salt solution (HBSS). The chrondrocytes within the cartilage slices are then liberated by a series of enzyme digestions. The slices are incubated for 10 min. at 37° C. in 0.05% hyaluronidase (Sigma H-3884), rinsed with HBSS and incubated with 0.2% trypsin (Sigma T-2395)for 10 min. at 37° C. The slices are rinsed again and incubated for 10 mins. at 37° C. with 1.2% collagenase (Sigma C-5138). The slices are then rinsed again with HBSS and resuspended in 10 ml of Ham's F-12 medium containing 10% fetal bovine calf serum (FCS) and 0.2% collagenase and incubated overnight at 37° C. in a 5% CO2 incubator. The next day, the medium containing the digested cartilage fragments and liberated chondrocytes is transferred to a 15 ml centrifuge tube and the cells are collected by centrifugation and washed twice and resuspended in Ham's F-12 medium. The cells are then placed into 24-well tissue culture plates (2×10^5 cells/well) and incubated at 37° C. until confluent (usually 4-6 days).
Stimulation of chondrocytes and drug treatment:
The confluent chondrocytes are rinsed twice with serum-free Ham's F-12 medium and 1 ml is added to each well. Fifty μl of purified human IL 1 (100 Units/ml; Genzyme Corporation, Boston, MA) is then added to stimulate these cells to secrete neutral protease. To measure drug effects, the cells are treated with test compound 10 min. prior to addition of IL 1. The standard screening dose is 10 μM. Twenty-four hours after IL 1 stimulation, supernatant fluids are collected and assayed for neutral protease activity.
The neutral protease activity of chrondrocyte supernatant fluids is determined by their ability to degrade an insoluble protease substrate, azocoll (Sigma). Supernatants are treated for 10 min. at room temperature with 350 μM p-aminophenylmercuric acetate to activate the latent enzyme. Three hundred μl of supernatant is then mixed with 500 μl of a 20 mg/ml suspension of azocoll and incubated at 37° C. for 18-24 hrs. with gentle rocking. The mixtures are centrifuged and the amount of substrate hydrolyzed is determined by measuring the absorbance of the supernatant at 520 nm.
Drug effects are calculated as the % change in enzyme activity (absorbance)by supernatants from drug-treated chrondrocytes relative to enzyme activity of supernatants from vehicle-treated chondrocytes as follows: [formula]

Row | Compound | inhibition at 1 µM [%]
1 | N#Cc1cc2c(nc1N)CCCC2 [Example 5, 2-Amino-5,6,7,8-tetrahydro-3-quinolinecarbonitrile] | 60

same assay, conditions: Oryctolagus cuniculus, Chondrocyte; dose 10 μM; human IL 1; 24 h; relative to vehicle-treated chondrocytes; read-out: % Inhibition (I.S.D.)

Row | Compound | inhibition at 10 µM [%]
2 | N#Cc1cc2c(nc1N)CCCC2 [Example 5, 2-Amino-5,6,7,8-tetrahydro-3-quinolinecarbonitrile] | 59
3 | N#Cc1ccc(N2CCc3nc(N)c(C#N)nc3C2)cc1 [Example 2, 2-Amino-6-(4-cyanophenyl)-5,6,7,8-tetrahydropyrido[3,4-b]pyrazine-3-carbonitrile] | 37
4 | N#Cc1nc2c(nc1N)CCCC2 [Example 4, 2-Amino-5,6,7,8-tetrahydro-3-quinoxalinecarbonitrile] | 41
5 | N#Cc1ccc(N2CCc3nc(N)c(C#N)cc3C2)cc1 [Example 1, 2-Amino-6-(4-cyanophenyl)-5,6,7,8-tetrahydro-1,6-naphthyridine-3-carbonitrile] | 18
6 | CS(=O)(=O)c1ccc(N2CCc3nc(N)c(C#N)cc3C2)cc1 [Example 3, 2-Amino-5,6,7,8-tetrahydro-6-[4-(methylsulfonyl)phenyl]-1,6-naphthyridine-3-carbonitrile] | 59
